According to patent US20240327408A1, “COMPOUNDS CONTAINING TETRAHYDRONAPHTHYRIDINONE OR TETRAHYDROPYRIDOPYRIMIDINONE SKELETON, PREPARATION METHOD THEREFOR AND PHARMACEUTICAL USE THEREOF” (CHINA PHARMACEUTICAL UNIVERSITY, priority 2021, published 2024):

Legend:
MV4; 11 cells = experiment: inhibiting the growth of MV4; 11 cells; format: cell-based; details: Homo sapiens
hClpP = target: T1, hClpP (Homo sapiens, UniProt Q16740); experiment: activating ClpP hydrolysis of FITC-casein (fluorescence kinetic detection); format: biochemical; details: hClpP 1 μM, FITC-Casein 4 μM, 37° C.
T1 construct: made in house
T1 sequence (Q16740 57-277): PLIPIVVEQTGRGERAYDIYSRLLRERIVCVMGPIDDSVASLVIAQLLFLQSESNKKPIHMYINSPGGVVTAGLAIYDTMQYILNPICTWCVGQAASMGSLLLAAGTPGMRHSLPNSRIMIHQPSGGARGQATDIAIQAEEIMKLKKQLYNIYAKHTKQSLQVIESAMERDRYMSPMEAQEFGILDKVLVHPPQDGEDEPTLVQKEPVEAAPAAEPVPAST
Description: The specific procedures were as follows:
Test compounds were each prepared into a 100 mM stock solution in DMSO and stored. and 1 μL of stock solution of each of the compounds was taken and diluted to 10 mM by adding 9 μL of DMSO for later use.
The compounds of formula I of the present invention were each diluted at concentrations of 200 μM, 50 μM, 10 μM, 2 μM, 500 nM, 100 nM, 20 nM, and 2 nM in an assay buffer. 50 μL of each of the compounds at different concentrations was added to each well, with 2 replicate wells.
The protein was diluted to 4 μM in an assay buffer. 25 μL of protein was added to each well, and incubated at 37° C. for 30 min. The final concentration was 1 μM.
25 μL of FITC-Casein was added to each well. The final concentration was 4 μM. The mixture was immediately loaded on the machine for detection.
FITC-Casein and FITC-Casein+ClpP were used as negative controls.
The detection temperature was 37° C. The plate was shaken for 3 s. […] Kinetic parameters were set, and scanning was performed once every 1 min for 15 min.

IC50 (MV4; 11 cells) [µM] | EC50 (hClpP) [µM] | SMILES
< 1 | < 1 | O=c1c2c(n3ccnc3n1Cc1ccc(Cl)cc1)CCN(Cc1cccc(F)c1)C2 [Compound I-118, 7-(3-fluorobenzyl)-4-(4-chlorobenzyl)-6,7,8,9-tetrahydroimidazo[1,2-a]pyrido[3,4-e]pyrimidine-5(4H)-one]
< 1 | < 1 | O=c1c2c(c3cccnc3n1Cc1ccc(F)cc1)CCN(Cc1cccc(Br)c1)C2 [Compound I-73, 3-(3-bromobenzyl)-6-(4-fluorobenzyl)-2,3,4,6-tetrahydropyrido[3,4-c][1,8]naphthyridine-5-(1H)-one]
< 1 | < 1 | O=c1c2c(c3cccnc3n1Cc1ccccc1)CCN(Cc1cccc(F)c1)C2 [Compound I-12, 6-benzyl-3-(3-fluorobenzyl)-2,3,4,6-tetrahydropyrido[3,4-c][1,8]naphthyridine-5-(1H)-one]
< 1 | < 1 | O=c1c2c(n3cccc3n1Cc1ccc(C(F)(F)F)cc1)CCN(Cc1ccccc1)C2 [Compound I-168, 3-benzyl-6-(4-trifluoromethylbenzyl)-1,2,3,4-tetrahydropyrido[3,4-e]pyrrolo[1,2-a]pyrimidine-5(6H)-one]
< 1 | < 1 | O=c1c2c(n3ccnc3n1Cc1ccc(F)cc1F)CCN(Cc1cccc(F)c1)C2 [Compound I-123, 7-(3-fluorobenzyl)-4-(2,4-difluorobenzyl)-6,7,8,9-tetrahydroimidazo[1,2-a]pyrido[3,4-e]pyrimidine-5(4H)-one]
< 1 | 1 to 10 | O=c1c2c(c3cccnc3n1Cc1ccccc1)CCN(Cc1ccccc1)C2 [Compound I-5, 3,6-dibenzyl-2,3,4,6-tetrahydropyrido[3,4-c][1,8]naphthyridine-5-(1H)-one]
1 to 10 | 1 to 10 | O=c1c2c(n3nccc3n1Cc1ccccc1)CCN(Cc1cccc(Cl)c1)C2 [Compound I-156, 4-benzyl-7-(3-chlorobenzyl)-6,7,8,9-tetrahydropyrazolo[1,5-a]pyrido[3,4-e]pyrimidine-5(4H)-one]
1 to 10 | 10 to 100 | Cn1ccc(CN2CCc3c(c(=O)n(Cc4ccccc4)c4ncccc34)C2)n1 [Compound I-24, 6-benzyl-3-((1-methyl-1H-pyrazol-3-yl)methyl)-2,3,4,6-tetrahydropyrido[3,4-c][1,8]naphthyridine-5-(1H)-one]
< 1 | < 1 | Cc1cccc(CN2CCc3c(c(=O)n(Cc4ccc(F)cc4)c4nccn34)C2)c1 [Compound I-115, 7-(3-methylbenzyl)-4-(4-fluorobenzyl)-6,7,8,9-tetrahydroimidazo[1,2-a]pyrido[3,4-e]pyrimidine-5(4H)-one]
< 1 | 10 to 100 | O=c1c2c(c3cccnc3n1Cc1ccccc1)CCN(CC1CCCCC1)C2 [Compound I-4, 6-benzyl-3-(cyclohexylmethyl)-2,3,4,6-tetrahydropyrido[3,4-c][1,8]naphthyridine-5-(1H)-one]
< 1 | < 1 | CCc1cccc(Cn2c(=O)c3c(c4cccnc42)CCN(Cc2ccccc2)C3)c1 [Compound I-50, 3-benzyl-6-(3-ethylbenzyl)-2,3,4,6-tetrahydropyrido[3,4-c][1,8]naphthyridine-5-(1H)-one]
< 1 | < 1 | O=c1c2c(n3ccnc3n1Cc1ccc(F)cc1F)CCN(Cc1cccc(Cl)c1)C2 [Compound I-124, 7-(3-chlorobenzyl)-4-(2,4-difluorobenzyl)-6,7,8,9-tetrahydroimidazo[1,2-a]pyrido[3,4-e]pyrimidine-5(4H)-one]
< 1 | < 1 | CCc1ccc(Cn2c(=O)c3c(n4ccnc24)CCN(Cc2cccc(C#N)c2)C3)cc1 [Compound I-141, 7-(3-cyanobenzyl)-4-(4-ethylbenzyl)-6,7,8,9-tetrahydroimidazo[1,2-a]pyrido[3,4-e]pyrimidine-5(4H)-one]
1 to 10 | 10 to 100 | O=c1c2c(c3cccnc3n1Cc1ccccc1)CCN(Cc1cccnc1)C2 [Compound I-28, 6-benzyl-3-(pyridin-3-ylmethyl)-2,3,4,6-tetrahydropyrido[3,4-c][1,8]naphthyridine-5-(1H)-one]
< 1 | < 1 | N#Cc1cccc(CN2CCc3c(c(=O)n(Cc4ccc(F)cc4)c4nccn34)C2)c1 [Compound I-116, 7-(3-cyanobenzyl)-4-(4-fluorobenzyl)-6,7,8,9-tetrahydroimidazo[1,2-a]pyrido[3,4-e]pyrimidine-5(4H)-one]
< 1 | < 1 | COc1ccc(Cn2c(=O)c3c(c4cccnc42)CCN(Cc2ccccc2)C3)cc1 [Compound I-57, 3-benzyl-6-(4-methoxybenzyl)-2,3,4,6-tetrahydropyrido[3,4-c][1,8]naphthyridine-5-(1H)-one]
< 1 | < 1 | N#Cc1cccc(CN2CCc3c(c(=O)n(Cc4ccc(F)cc4)c4ncccc34)C2)c1 [Compound I-84, 6-(4-fluorobenzyl)-3-(3-cyanobenzyl)-2,3,4,6-tetrahydropyrido[3,4-c][1,8]naphthyridine-5-(1H)-one]
1 to 10 | 1 to 10 | O=c1c2c(n3ccnc3n1Cc1ccccc1)CCN(Cc1ccccc1)C2 [Compound I-107, 4,7-dibenzyl-6,7,8,9-tetrahydroimidazo[1,2-a]pyrido[3,4-e]pyrimidine-5(4H)-one]
< 1 | < 1 | Cc1cccc(Cn2c(=O)c3c(c4cccnc42)CCN(Cc2ccccc2)C3)c1 [Compound I-49, 3-benzyl-6-(3-methylbenzyl)-2,3,4,6-tetrahydropyrido[3,4-c][1,8]naphthyridine-5-(1H)-one]
< 1 | < 1 | Cc1ccc(Cn2c(=O)c3c(n4ccnc24)CCN(Cc2cccc(C)c2)C3)cc1 [Compound I-135, 7-(3-methylbenzyl)-4-(4-methylbenzyl)-6,7,8,9-tetrahydroimidazo[1,2-a]pyrido[3,4-e]pyrimidine-5(4H)-one]
< 1 | 1 to 10 | O=c1c2c(c3cccnc3n1Cc1ccccc1Cl)CCN(Cc1ccccc1)C2 [Compound I-41, 3-benzyl-6-(2-chlorobenzyl)-2,3,4,6-tetrahydropyrido[3,4-c][1,8]naphthyridine-5-(1H)-one]
< 1 | 1 to 10 | CCc1ccccc1CN1CCc2c(c(=O)n(Cc3ccccc3)c3ncccc23)C1 [Compound I-10, 6-benzyl-3-(2-ethylbenzyl)-2,3,4,6-tetrahydropyrido[3,4-c][1,8]naphthyridine-5-(1H)-one]
1 to 10 | 1 to 10 | CN(C)c1ccc(Cn2c(=O)c3c(c4cccnc42)CCN(Cc2cccc(C#N)c2)C3)cc1 [Compound I-90, 6-(4-dimethylaminobenzyl)-3-(3-cyanobenzyl)-2,3,4,6-tetrahydropyrido[3,4-c][1,8]naphthyridine-5-(1H)-one]
< 1 | 1 to 10 | COc1ccccc1CN1CCc2c(c(=O)n(Cc3ccccc3)c3ncccc23)C1 [Compound I-11, 6-benzyl-3-(2-methoxybenzyl)-2,3,4,6-tetrahydropyrido[3,4-c][1,8]naphthyridine-5-(1H)-one]

SMILES | IC50 (MV4; 11 cells) [µM] | EC50 (hClpP) [µM]
O=c1c2c(n3ccnc3n1Cc1ccc(C(F)(F)F)cc1)CCN(Cc1cccc(Cl)c1)C2 [Compound I-129, 7-(3-chlorobenzyl)-4-(4-trifluoromethylbenzyl)-6,7,8,9-tetrahydroimidazo[1,2-a]pyrido[3,4-e]pyrimidine-5(4H)-one] | < 1 | 
